Experimental data from publication PMC3543412, “Fatty Acid Solubilizer from the Oral Disk of the Blowfly” (PLoS ONE, 2013).

How the values were obtained:
[1] = target: T1, PregOBP56a (Phormia regina odorant-binding protein 56a) (Phormia regina, UniProt L8B8J6); assay: direct fluorescence titration of the reporter probe, pH […]
T1 construct: recombinant mature PregOBP56a (117 amino acid residues)
T1 sequence (L8B8J6 19-135): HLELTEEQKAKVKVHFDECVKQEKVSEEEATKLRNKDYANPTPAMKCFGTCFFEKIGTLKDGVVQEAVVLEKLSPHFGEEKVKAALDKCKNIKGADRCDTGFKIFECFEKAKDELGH

[2] = target: T1, PregOBP56a (Phormia regina odorant-binding protein 56a); assay: fluorescence competitive binding assay (1-NPN displacement), pH […]

SMILES | Kd [1] [nM] | Kd [2] [nM]
c1ccc(Nc2cccc3ccccc23)cc1 [1-NPN, N-phenyl-1-naphthylamine] | 11400 | –
CCCCC/C=C\C/C=C\CCCCCCCC(=O)O [linoleic acid] | – | 510
CCCCCCCC/C=C\CCCCCCCC(=O)O [oleic acid] | – | 710
CCCCCCCCCCCCCCCC(=O)O [palmitic acid] | – | 280
CCCCCCCCCCCCCCCCCC(=O)O [stearic acid] | – | 350
